Laboratory results: US12187672B2, “1,2-diacylglycerol compound, preparation method therefor, and immunomodulator containing same as active ingredient” (ENZYCHEM LIFESCIENCES CORPORATION, priority 2018, dated 2025)

Key:
IL-6 = assay: LPS-induced IL-6 secretion reduction in RAW264.7 cells (ELISA); format: cell-based, mouse; conditions: sample 100 μg/ml 1 h, then LPS 1 μg/ml 24 h, Table 2
Procedure: In DMEM (Dulbecco Modified Eagle Medium, Hyclone, Thermo Scientific) medium to which 10% Fetal Bovine Serum was added, RAW264.7 cells, a mouse macrophage family, were suspended at a concentration of 1×10^5 cells/ml, and culture was conducted in a 5% CO2 humidified incubator at 37° C. The cultured RAW264.7 cells were inoculated into a 48 well plate by 5×10^4 cells/ml and stabilized for 15 hours. Then, the culture solution was treated with a glycerol derivative compounds of the type shown in Table 2 and 3 below for 1 hour and then was treated with 1 μg/ml of Lipopolysaccaride (LPS) of a cell stimulator, and subsequent further incubation was conducted for 24 hours. Thereafter 0.5 ml of the culture supernatant was collected for each well and centrifuged (at 3000 rpm, 5 minutes) to recover the supernatant. The IL-6 level in the recovered supernatant was measured according to the manual provided by the Mouse IL-6 ELISA set (BD Biosciences). The day before ELISA was carried out, the IL-6 capture antibody was diluted in phosphate buffered saline, coated on a microwell, and then stored at 4° C. overnight. Each well was washed three times with a buffer solution and then blocked with 2% Bovine Serum Albumin (BSA) for 1 hour at room temperature. After washing with buffer solution three times, […] of sample was dispensed into each well and left at room temperature for 2 hours. Detection antibody which was washed 3 times with washing buffer solution and diluted was dispensed into each well and allowed to react at room temperature for 1 hour and left at room temperature for 1 hour. Thereafter, the secondary HRP conjugated antibody was reacted at room temperature for 30 minutes, washed three times with a buffer solution, and treated with 50 μl of stop solution for each well, and then the optical density was measured at 450 nm with an ELISA microplate leader. The results of the IL-6 expression reduction rate (IL-6 concentration) are shown in Table 2, Table 3, FIG. 1 and FIG. 2 below.

STAT3 = assay: IL-6-induced STAT3 activity, SEAP expression in HEK-Blue IL-6 cells; format: cell-based; conditions: HEK-Blue IL-6 cells; for STAT3 activity_SEAP expression(%) (average ± deviation): sample 100 μg/ml 1 h, then IL-6 5 ng/ml 24 h, negative control = 100; for decrease of STAT3 activity compared to the IL-6 cytokine-treated group: 100 μg/ml
Procedure: HEK-Blue™ IL-6 cells were used to confirm STAT3 activity by STAT3-induced SEAP (secreted embryonic alkaline phosphatase) expression. In DMEM (Hyclone, Thermo Scientific) medium to which 10% Fetal Bovine Serum was added, HEK-Blue™ IL-6 cells were cultured at a concentration of 1×10^5 cells/ml, and maintained in a 5% CO2 humidified incubator at 37° C. The cultured HEK-Blue™ IL-6 cells were inoculated by 1×10^5 cells/ml. Then, the culture solution was treated with a glycerol derivative compounds of the type shown in Table 4 below for 1 hour and then IL-6 (5 ng/ml) was further incubated for 24 hours for STAT3 activity. Thereafter, the culture supernatant was collected for each well and centrifuged (at 3000 rpm, 5 minutes) to recover the supernatant. The SEAP expression level in the recovered supernatant was mixed with Quanti blue reagent and the supernatant at a ratio of 1:10 and left at 37° C. for about 30 minutes. Then, the SEAP concentration was confirmed at 650 nm wavelength using a spectrophotometer, and the results (STAT3 activity inhibitory ability) thereof are shown in Table 4 and FIG. 3 below.

CXCL8 (IL-8) = CXCL8 (IL-8) expression reduction in Gemcitabine-treated THP-1 cells (ELISA); format: cell-based, human; conditions: THP-1 cells; sample 100 μg/ml 1 h, then Gemcitabine 2 μg/ml 24 h
Procedure: In RPMI (Hyclone, Thermo Scientific) medium to which 10% Fetal Bovine Serum was added, THP-1 cells, a human macrophage family, were suspended at a concentration of 1×10^5 cells/ml, and culture was conducted in a 5% CO2 humidified incubator at 37° C. The cultured THP-1 cells were inoculated into a 12 well plate by 1×10^6 cells/ml and stabilized for 30 minutes. Then, the culture solution was treated with a glycerol derivative compounds of the type shown in Table 6 below for 1 hour and then was treated with Gemcitabine (2 μg/ml) of a cell stimulator, and subsequent further incubation was conducted for 24 hours. Thereafter 1.5 ml of the culture supernatant was collected for each well and centrifuged (at 3000 rpm, 5 minutes) to recover the supernatant. The CXCL8 (IL-8) level in the recovered supernatant was measured according to the manual provided by the human IL-8 ELISA set (BD Biosciences). The day before ELISA was carried out, the IL-8 capture antibody was diluted in phosphate buffered saline, coated on a microwell, and then stored at 4° C. overnight. Each well was washed three times with a buffer solution and then blocked with 2% Bovine Serum Albumin (BSA) for 1 hour at room temperature. After washing with washing buffer solution three times, 100 μl of sample was dispensed into each well and left at room temperature for 2 hours. Detection antibody which was washed 3 times with washing buffer and diluted was dispensed into each well and allowed to react at room temperature for 1 hour and left at room temperature for 1 hour. Thereafter, the secondary HRP conjugated antibody was reacted at room temperature for 30 minutes, washed three times with a washing buffer, and treated with 50 μl of stop solution for each well, and then the optical density was measured at 450 nm with an ELISA microplate leader.

HL-60 cells = assay: Migration of HL-60 cell line toward THP-1 culture supernatant (transmigration assay); format: cell-based, human; conditions: supernatant of THP-1 cells treated with sample 100 μg/ml 1 h, then Gemcitabine 2 μg/ml 24 h
Procedure: In RPMI (Hyclone, Thermo Scientific) medium to which 10% Fetal Bovine Serum was added, THP-1 cells, a human macrophage family, were subcultured at a concentration of 1×10^5 cells/ml, and culture was conducted in a 5% CO2 humidified incubator at 37° C. In order to prepare the THP-1 cell culture solution to be treated in the lower well during the transmigration assay, first, the cultured THP-1 cells were inoculated into a 12 well plate by 1×10^6 cells/ml and stabilized for 30 minutes. Then, the culture solution was treated with a glycerol derivative compounds of the type shown in Table 7 below for 1 hour and then was treated with Gemcitabine (2 μg/ml) of a cell stimulator, and subsequent further incubation was conducted for 24 hours. Thereafter 1.5 ml of the culture supernatant was collected for each well and centrifuged (at 3000 rpm, 5 minutes) to recover the supernatant. The CXCL8 (IL-8) level in the recovered supernatant was measured according to the manual provided by Cultrex 96 well Laminin Cell Invasion assay. The day before Transmigration assay was carried out, a 1× Lamin I solution was treated in the upper Invasion Chamber and coated. Thereafter, in RPMI (Hyclone, Thermo Scientific) medium to which 10% Fetal Bovine Serum was added, the cultured HL-60 cells were despensed of 5×10^4 cells/chamber, and 150 μl of the THP-1 culture supernatant prepared in advance was added to the lower chamber. Thereafter the upper chamber was removed, and the cells were attached to the bottom of the lower chamber by a centrifuge, and then the supernatant was removed. Cell dissociation/Calcein-AM solution was added and reacted for 1 hour. Then, the value obtained using a fluorescence spectroscopy was calculated by converting the number of cells.

IL-4 = assay: PKC activator-induced IL-4 secretion reduction in EL-4 cells (ELISA); format: cell-based, mouse; conditions: sample 100 μg/ml 2 h, then PKC activator 18 h, Table 11
Procedure: In DMEM (Dulbecco Modified Eagle Medium, Hyclone, Thermo Scientific) medium to which 10% Fetal Bovine Serum was added, EL-4 cells, a mouse lymphoma family, were subcultured at a concentration of 1×10^5 cells/ml, and culture was conducted in a 5% CO2 humidified incubator at 37° C. The cultured EL-4 cells were inoculated into a 48 well plate by 5×10^4 cells/ml and stabilized for 30 hours. Then, the culture solution was treated with a glycerol derivative compounds of the type shown in Table 11 and 12 below for 2 hours. Thereafter, it were treated with 0.5 μg/ml of PKC activator (p10, some kind of PMA) of a cell stimulator, and subsequent further incubation were conducted for 18 hours. Thereafter 0.5 ml of the culture supernatant was collected for each well and centrifuged (at 3000 rpm, 5 minutes) to recover the supernatant. The IL-4 level in the recovered supernatant was measured according to the manual provided by the Mouse IL-4 ELISA set (BD Biosciences). The day before ELISA was carried out, the IL-4 capture antibody was diluted in phosphate buffered saline, coated on a microwell, and then stored at 4° C. overnight. Each well was washed three times with a buffer solution and then blocked with 2% Bovine Serum Albumin (BSA) for 1 hour at room temperature. After washing with buffer solution three times, 100 μl of sample was dispensed into each well and left at room temperature for 2 hours. Detection antibody which was washed 3 times with washing buffer solution and diluted was dispensed into each well and allowed to react at room temperature for 1 hour and left at room temperature for 1 hour. Thereafter, the secondary HRP conjugated antibody was reacted at room temperature for 30 minutes, washed three times with buffer solution, and treated with 50 μl of stop solution for each well, and then the optical density was measured at 450 nm with an ELISA microplate leader. The results of the measured expression reduction rate ([…]) were shown in Table 11, Table 12, FIG. 11 and FIG. 12 below.

STAT6 = assay: IL-4-induced STAT6 activity, pGL4-STAT6 luciferase reporter in A549 cells; format: cell-based; conditions: sample 100 μg/ml 1 h, then IL-4 (2 ng/ml) 20 h, Table 9
Procedure: In DMEM (Dulbecco Modified Eagle Medium, Hyclone, Thermo Scientific) medium to which 10% Fetal Bovine Serum was added, A549 cells were subcultured at a concentration of 1×10^5 cells/ml, and culture was conducted in a 5% CO2 humidified incubator at 37° C. The cultured A549 cells were inoculated into a 48 well plate by 1×10^5 cells/ml and stabilized for 18 hours. Thereafter, pGL4-STAT6 reporter vector containing a STAT6 binding promoter portion was mixed with Attractene to induce complex formation at room temperature for 15 minutes. This complex was treated with the cells and then further incubated for 24 hours. Thereafter, the culture solution was treated with a glycerol derivative compounds of the type shown in Table 9 and 10 below for 1 hour, and then IL-4 (2 ng/ml or 10 ng/ml) was further incubated for 20 hours for STAT6 activity. Thereafter, the culture supernatant was removed for each well, and the remaining cells were lysed with a cell lysis buffer, and then cell lysate was recovered. 90 μl of luciferase reagent was mixed with 10 μl of the recovered cell lysate, and the degree of fluorescence was confirmed using a luminometer. The results are shown in Table 9, Table 10, FIG. 9 and FIG. 10 below.

Structure (SMILES)	IL-6 concentration (average ± deviation) (IL-6)	STAT3 activity_SEAP expression(%) (average ± deviation) (STAT3)	CXCL8 [IL-8] concentration (average ± deviation) (CXCL8 (IL-8))	Number of HL-60 cells migrated through Transwell (HL-60 cells)	IL-4 concentration (average ± deviation) (IL-4)	decrease of STAT3 activity compared to the IL-6 cytokine-treated group (STAT3)	STAT6 activity_Luciferase activity (average ± deviation) (STAT6)
CCCCC/C=C\C/C=C\CCCCCCCC(=O)OC(COC(=O)CCCCCCCCCCCCCCC)COC(C)OC (centres unmarked) [EC_A70-1]	0.144 ± 0.028 µg/mL	259.5 ± 28.4%	200.1 ± 1.0 pg/µL	4047.1 Cell Number	865.6 ± 127.9 pg/µL	–	–
CCCCC/C=C\C/C=C\CCCCCCCC(=O)OC(COC(=O)CCCCCCCCCCCCCCC)COC(=O)c1ccccc1 (centres unmarked) [EC_A16]	0.238 ± 0.008 µg/mL	171.1 ± 17.5%	135.1 ± 2.3 pg/µL	26348.9 Cell Number	–	about 25%	964.5 ± 170.3
CCCCC/C=C\C/C=C\CCCCCCCC(=O)OC(COC)COC(=O)CCCCCCCCCCCCCCC (centres unmarked) [EC_A13]	0.266 ± 0.024 µg/mL	167.2 ± 8.4%	96.6 ± 0.2 pg/µL	8679.7 Cell Number	–	about 25%	1150.2 ± 44.9
